Assay results as given in patent publication US20100063047A1 (KALYPSYS, INC., priority 2008, published 2010).
pEC50: −log10 of the molar value.

Each compound was assayed against T1, human H1 (Homo sapiens, UniProt P35367) (assay: In vitro histamine H1 receptor cell-based aequorin bioluminescence antagonist assay). Conditions: not given.
T1 construct: host or cells: CHO-K1, also expressing mitochondrion-targeted aequorin
Method: In vitro Histamine Receptor Cell-Based Assays
The cell-based assays utilize an aequorin dependent bioluminescence signal. Doubly-transfected, stable CHO—K1 cell lines expressing human H1 or H4, mitochondrion-targeted aequorin, and (H4 only) human G protein Gα16 are obtained from Perkin-Elmer. Cells are maintained in F12 (Ham's) growth medium, containing 10% (vol./vol.) fetal bovine serum, penicillin (100 IU/mL), streptomycin (0.1 mg/mL), zeocin (0.25 mg/mL) and geneticin (0.40 mg/mL). Cell media components are from Invitrogen, Inc. One day prior to assay, the growth medium is replaced with the same, excluding zeocin and geneticin.
For assay preparation, growth medium is aspirated, and cells are rinsed with calcium-free, magnesium-free phosphate-buffered saline, followed by two to three minute incubation in Versene (Invitrogen, Inc.) at 37° C. Assay medium (DMEM:F12 [50:50], phenol-red free, containing 1 mg/mL protease-free bovine serum albumin) is added to collect the released cells, which are then centrifuged. The cell pellet is re-suspended in assay medium, centrifuged once more, and re-suspended in assay medium to a final density of 5×10^6 cells/mL. Coelenterazine-h dye (500 μM in ethanol) is added to a final concentration of 5 μM, and mixed immediately. The conical tube containing the cells is then wrapped with foil to protect the light-sensitive dye. The cells are incubated for four hours further at room temperature (approximately 21° C.) with end-over-end rotation to keep them in suspension.
Just before assay, the dye-loaded cells are diluted to 0.75×10^6 cells/mL (H1 receptor) or 1.5×10^6 cells/mL (H4 receptor) with additional assay medium. Cells are dispensed to 1536 well micro-titer plates at 3 μL/well. To assay receptor antagonism, 60 nl of 100× concentration test compounds in 100% dimethyl sulfoxide (DMSO) are dispensed to the wells, one compound per well, by passive pin transfer, and the plates are incubated for 15 minutes at room temperature. […] The pipette dispenses 3 μL/well of agonist (histamine, at twice the final concentration, where final concentration is a previously determined EC80) in assay medium, with concurrent bioluminescence detection. Agonist activity of test compounds is excluded by separate assays that measure response to test compounds immediately, without added histamine agonist.
CCD image capture on the Lumilux includes a 5 second baseline read prior to agonist addition, and generally a 40 second read per plate after agonist addition. A decrease in bioluminescence signal (measured either as area-under-the-curve, or maximum signal amplitude minus minimum signal amplitude) correlates with receptor antagonism in a dose dependent manner. The negative control is DMSO lacking any test compound. For antagonist assays, the positive controls are diphenhydramine (2-Diphenylmethoxy-N,N-dimethylethylamine, 10 μM final concentration, H1 receptor) or JNJ7777120 (1-[(5-Chloro-1H-indol-2-yl)carbonyl]-4-methyl-piperazine, 10 μM final concentration, H4 receptor). Efficacy is measured as a percentage of positive control activity.

T1 sequence (P35367 whole entry): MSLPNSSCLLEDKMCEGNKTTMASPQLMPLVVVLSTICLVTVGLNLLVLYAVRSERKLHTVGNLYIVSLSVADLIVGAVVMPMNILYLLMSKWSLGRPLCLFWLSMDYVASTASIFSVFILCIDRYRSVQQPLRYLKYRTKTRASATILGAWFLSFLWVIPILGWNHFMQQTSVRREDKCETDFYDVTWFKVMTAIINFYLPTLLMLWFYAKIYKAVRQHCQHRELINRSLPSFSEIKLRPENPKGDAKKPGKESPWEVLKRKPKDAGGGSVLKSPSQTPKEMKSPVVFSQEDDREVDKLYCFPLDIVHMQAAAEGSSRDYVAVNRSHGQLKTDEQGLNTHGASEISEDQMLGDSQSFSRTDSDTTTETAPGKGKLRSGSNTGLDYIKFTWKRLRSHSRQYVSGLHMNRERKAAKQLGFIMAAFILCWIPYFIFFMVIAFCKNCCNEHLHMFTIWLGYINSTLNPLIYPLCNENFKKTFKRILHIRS

Question: `COc1ccc(OC)c(CCNc2ncnc3scc(C)c23)c1` [Example 169, N-[2-(2,5-dimethoxyphenyl)ethyl]-5-methylthieno[2,3-d]pyrimidin-4-amine] was tested. Which pEC50 did it give?
Answer: The pEC50 was < 5.00.

Same assay, conditions: CHO-K1 cells expressing human H1 and aequorin; histamine at EC80; read-out: H1 Antagonist EC50

Question: With `Cc1csc2ncnc(NCc3ccc(F)c(F)c3)c12` [Example 134, N-[(3,4-difluorophenyl)methyl]-5-methylthieno[2,3-d]pyrimidin-4-amine] as the compound, how does the pEC50 read?
Answer: Its pEC50 is < 5.00.

Question: `Cc1csc2ncnc(NCc3ccc(F)c(Cl)c3)c12` [Example 152, N-[(3-chloro-4-fluorophenyl)methyl]-5-methylthieno[2,3-d]pyrimidin-4-amine] was tested. Which pEC50 did it give?
Answer: Its pEC50 is < 5.00.

Question: `Cc1csc2ncnc(NCC3CCCCC3)c12` [Example 89, N-(cyclohexylmethyl)-5-methylthieno[2,3-d]pyrimidin-4-amine] was tested. Which pEC50 did it give?
Answer: Its pEC50 is < 5.00.

Question: `Cc1csc2ncnc(NCc3ccc4c(c3)OCO4)c12` [Example 141, N-(2H-1,3-benzodioxol-5-ylmethyl)-5-methylthieno[2,3-d]pyrimidin-4-amine] was tested. Which pEC50 did it give?
Answer: Its pEC50 is < 5.00.

Question: With `Cc1csc2ncnc(NCCC(c3ccccc3)c3ccccc3)c12` [Example 176, N-(3,3-diphenylpropyl)-5-methylthieno[2,3-d]pyrimidin-4-amine] as the compound, how does the pEC50 read?
Answer: The pEC50 was < 5.00.

Question: How did the pEC50 turn out when `CCC(CO)Nc1ncnc2scc(C)c12` (centres unmarked) [Example 72, 2-({5-methylthieno[2,3-d]pyrimidin-4-yl}amino)butan-1-ol] was run?
Answer: The pEC50 was < 5.00.

Question: `CCOC(=O)N1CCC(Nc2ncnc3scc(C)c23)CC1` [Example 162, ethyl 4-({5-methylthieno[2,3-d]pyrimidin-4-yl}amino)piperidine-1-carboxylate] was tested. Which pEC50 did it give?
Answer: Its pEC50 is < 5.00.

Question: `Cc1csc2ncnc(NCc3cccc(F)c3)c12` [Example 102, N-[(3-fluorophenyl)methyl]-5-methylthieno[2,3-d]pyrimidin-4-amine] was tested. Which pEC50 did it give?
Answer: The pEC50 was < 5.00.

Question: How did the pEC50 turn out when `Cc1ccc([C@H](C)Nc2ncnc3scc(C)c23)cc1` [Example 114, 5-methyl-N-[(1S)-1-(4-methylphenyl)ethyl]thieno[2,3-d]pyrimidin-4-amine] was run?
Answer: Its pEC50 is < 5.00.

Question: How did the pEC50 turn out when `Cc1csc2ncnc(NCCc3ccccc3Cl)c12` [Example 148, N-[2-(2-chlorophenyl)ethyl]-5-methylthieno[2,3-d]pyrimidin-4-amine] was run?
Answer: The pEC50 was < 5.00.

Question: How did the pEC50 turn out when `Cc1csc2ncnc(NC3CCc4ccccc43)c12` (centres unmarked) [Example 111, N-(2,3-dihydro-1H-inden-1-yl)-5-methylthieno[2,3-d]pyrimidin-4-amine] was run?
Answer: The pEC50 was < 5.00.

Question: `Cc1csc2ncnc(NCCc3cccc(Cl)c3)c12` [Example 149, N-[2-(3-chlorophenyl)ethyl]-5-methylthieno[2,3-d]pyrimidin-4-amine] was tested. Which pEC50 did it give?
Answer: The pEC50 was < 5.00.

Question: How did the pEC50 turn out when `OCCCCNc1ncnc2scc(-c3ccccc3)c12` [Example 312, 4-(5-phenylthieno[2,3-d]pyrimidin-4-ylamino)butan-1-ol] was run?
Answer: Its pEC50 is < 5.00.

Question: `CCCC(C)Nc1ncnc2scc(C)c12` (centres unmarked) [Example 66, 5-methyl-N-(pentan-2-yl)thieno[2,3-d]pyrimidin-4-amine] was tested. Which pEC50 did it give?
Answer: The pEC50 was < 5.00.

Question: How did the pEC50 turn out when `Cc1csc2ncnc(NCCc3ccc(O)cc3)c12` [Example 121, 4-[2-({5-methylthieno[2,3-d]pyrimidin-4-yl}amino)ethyl]phenol] was run?
Answer: The pEC50 was < 5.00.

Question: With `Cc1csc2ncnc(NCCc3cccc(F)c3)c12` [Example 18] as the compound, how does the pEC50 read?
Answer: The pEC50 was < 5.00.

Question: How did the pEC50 turn out when `Cc1ccc(CNc2ncnc3scc(C)c23)cc1` [Example 100, 5-methyl-N-[(4-methylphenyl)methyl]thieno[2,3-d]pyrimidin-4-amine] was run?
Answer: The pEC50 was < 5.00.

Question: `Cc1csc2ncnc(N[C@H](CO)Cc3ccccc3)c12` [Example 143, (2S)-2-({5-methylthieno[2,3-d]pyrimidin-4-yl}amino)-3-phenylpropan-1-ol] was tested. Which pEC50 did it give?
Answer: Its pEC50 is < 5.00.

Question: With `Cc1csc2ncnc(NCCc3ccc(F)cc3)c12` [Example 17] as the compound, how does the pEC50 read?
Answer: Its pEC50 is < 5.00.

Question: `CC(=O)c1ccc(N2CCN(c3ncnc4scc(C)c34)CC2)cc1` [Example 271, 1-[4-(4-{5-methylthieno[2,3-d]pyrimidin-4-yl}piperazin-1-yl)phenyl]ethan-1-one] was tested. Which pEC50 did it give?
Answer: Its pEC50 is < 5.00.

Question: How did the pEC50 turn out when `COCC(C)n1c(C)cc(C(=O)CSc2ncnc3sc(C)c(C)c23)c1C` (centres unmarked) [Example 303, 2-(5,6-dimethylthieno[2,3-d]pyrimidin-4-ylthio)-1-(1-(1-methoxypropan-2-yl)-2,5-dimethyl-1H-pyrrol-3-yl)ethanone] was run?
Answer: Its pEC50 is < 5.00.

Question: How did the pEC50 turn out when `Cc1cccc(CCNc2ncnc3scc(C)c23)c1` [Example 20] was run?
Answer: The pEC50 was < 5.00.

Question: How did the pEC50 turn out when `Cc1csc2ncnc(N3CCCCC3CCO)c12` (centres unmarked) [Example 215, 2-(1-{5-methylthieno[2,3-d]pyrimidin-4-yl}piperidin-2-yl)ethan-1-ol] was run?
Answer: The pEC50 was < 5.00.

Question: How did the pEC50 turn out when `Cc1csc2ncnc(NCc3cccs3)c12` [Example 87, 5-methyl-N-(thiophen-2-ylmethyl)thieno[2,3-d]pyrimidin-4-amine] was run?
Answer: Its pEC50 is < 5.00.

Question: With `Cc1csc2ncnc(NC(=O)Cc3ccc(Cl)cc3)c12` [Example 31, 2-(4-chlorophenyl)-N-(5-methylthieno[2,3-d]pyrimidin-4-yl)acetamide] as the compound, how does the pEC50 read?
Answer: Its pEC50 is < 5.00.

Question: `CCC(CO)Nc1ncnc2scc(C)c12` (centres unmarked) [Example 73, 2-({5-methylthieno[2,3-d]pyrimidin-4-yl}amino)butan-1-ol] was tested. Which pEC50 did it give?
Answer: The pEC50 was < 5.00.

Question: How did the pEC50 turn out when `Cc1sc2ncnc(N3CCN(S(=O)(=O)c4ccc(C(C)(C)C)cc4)CC3)c2c1C` [Example 310, 4-(4-(4-tert-butylphenylsulfonyl)piperazin-1-yl)-5,6-dimethylthieno[2,3-d]pyrimidine] was run?
Answer: Its pEC50 is < 5.00.

Question: With `COc1ccc(CCNc2ncnc3sccc23)cc1` [Example 48, N-[2-(4-methoxyphenyl)ethyl]thieno[2,3-d]pyrimidin-4-amine] as the compound, how does the pEC50 read?
Answer: Its pEC50 is < 5.00.

Question: `Cc1ccccc1CNc1ncnc2scc(C)c12` [Example 99, 5-methyl-N-[(2-methylphenyl)methyl]thieno[2,3-d]pyrimidin-4-amine] was tested. Which pEC50 did it give?
Answer: Its pEC50 is < 5.00.

Question: `Cc1csc2ncnc(N3CCN(c4ccc(C(F)(F)F)cc4)CC3)c12` [Example 287, 1-{5-methylthieno[2,3-d]pyrimidin-4-yl}-4-[4-(trifluoromethyl)phenyl]piperazine] was tested. Which pEC50 did it give?
Answer: The pEC50 was < 5.00.

Question: With `Cc1sc2ncnc(NCCc3ccc(S(N)(=O)=O)cc3)c2c1C` [Example 301, 4-(2-(5,6-dimethylthieno[2,3-d]pyrimidin-4-ylamino)ethyl)benzenesulfonamide] as the compound, how does the pEC50 read?
Answer: Its pEC50 is < 5.00.

Question: With `CCOC(=O)CNc1ncnc2scc(-c3ccccc3)c12` [Example 300, Ethyl 2-(5-phenylthieno[2,3-d]pyrimidin-4-ylamino)acetate] as the compound, how does the pEC50 read?
Answer: The pEC50 was < 5.00.

Question: With `CC(C)(CNc1ncnc2sccc12)N1CCOCC1` [Example 308, N-(2-methyl-2-morpholinopropyl)thieno[2,3-d]pyrimidin-4-amine] as the compound, how does the pEC50 read?
Answer: Its pEC50 is < 5.00.

Question: `Cc1csc2ncnc(NCc3ccc(Cl)c(Cl)c3)c12` [Example 166, N-[(3,4-dichlorophenyl)methyl]-5-methylthieno[2,3-d]pyrimidin-4-amine] was tested. Which pEC50 did it give?
Answer: Its pEC50 is < 5.00.

Question: How did the pEC50 turn out when `Cc1csc2ncnc(NCCCc3ccccc3)c12` [Example 117, 5-methyl-N-(3-phenylpropyl)thieno[2,3-d]pyrimidin-4-amine] was run?
Answer: The pEC50 was < 5.00.

Question: How did the pEC50 turn out when `Cc1ccc(CNc2ncnc3scc(C)c23)cc1C` [Example 118, N-[(3,4-dimethylphenyl)methyl]-5-methylthieno[2,3-d]pyrimidin-4-amine] was run?
Answer: Its pEC50 is < 5.00.

Question: With `Cc1csc2ncnc(NCCNC(=O)OC(C)(C)C)c12` [Example 154, tert-butyl N-[2-({5-methylthieno[2,3-d]pyrimidin-4-yl}amino)ethyl]carbamate] as the compound, how does the pEC50 read?
Answer: The pEC50 was < 5.00.
